Key:
barnyardgrass = assay: Test B flooded paddy test; format: in vivo, Echinochloa crus-galli; details: 250 g ai/ha, Flood, 13 days, 0 to 100 scale (0 no effect, 100 complete control)
How it was run: (§1)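 2-leaf stage; pots flooded 3 cm over soil; compound dosed into paddy water; depth kept constant. Greenhouse, 13 d. Visual rating vs controls, 0 (no effect)–100 (complete control). Dash = no result.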

pigweed, palmer [1] = assay: Test A preemergence; format: in vivo, Amaranthus palmeri
How it was run: (§2)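 Weeds and crops in loam–sand blend were sprayed preemergence onto soil or postemergence at 2–10 cm (one- to two-leaf stage). Test chemicals were in a non-phytotoxic solvent with surfactant. After 10 days in the greenhouse, injury was rated visually against untreated controls on a 0 (no effect) to 100 (complete control) scale.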

pigweed, palmer [2] = assay: Test A postemergence; format: in vivo, Amaranthus palmeri
How it was run: as §2

soybean [3] = assay: Test A preemergence; format: in vivo, Glycine max
How it was run: as §2

foxtail, giant [4] = assay: Test A preemergence; format: in vivo, Setaria faberi
How it was run: as §2

kochia [5] = assay: Test A preemergence; format: in vivo, Bassia scoparia
How it was run: as §2

goosegrass [6] = assay: Test A postemergence; format: in vivo, Eleusine indica
How it was run: as §2

rice = assay: Test B flooded paddy test; format: in vivo, Oryza sativa; details: 250 g ai/ha, Flood, 13 days, 0 to 100 scale (0 no effect, 100 complete control)
How it was run: as §1

horseweed = assay: Test A postemergence; format: in vivo, Erigeron canadensis
How it was run: as §2

oat, wild [7] = assay: Test A preemergence; format: in vivo, Avena fatua
How it was run: as §2

corn [8] = assay: Test A postemergence; format: in vivo, Zea mays
How it was run: as §2

ducksalad = assay: Test B flooded paddy test; format: in vivo, Heteranthera limosa; details: 250 g ai/ha, Flood, 13 days, 0 to 100 scale (0 no effect, 100 complete control)
How it was run: as §1

sedge, umbrella = assay: Test B flooded paddy test; format: in vivo, Cyperus difformis; details: 250 g ai/ha, Flood, 13 days, 0 to 100 scale (0 no effect, 100 complete control)
How it was run: as §1

soybean [9] = assay: Test A postemergence; format: in vivo, Glycine max
How it was run: as §2

wheat [10] = assay: Test A postemergence; format: in vivo, Triticum aestivum
How it was run: as §2

ragweed [11] = assay: Test A preemergence; format: in vivo, Ambrosia artemisiifolia
How it was run: as §2

kochia [12] = assay: Test A postemergence; format: in vivo, Bassia scoparia
How it was run: as §2

wheat [13] = assay: Test A preemergence; format: in vivo, Triticum aestivum
How it was run: as §2

goosegrass [14] = assay: Test A preemergence; format: in vivo, Eleusine indica
How it was run: as §2

galium = assay: Test A postemergence; format: in vivo, Galium aparine
How it was run: as §2

oat, wild [15] = assay: Test A postemergence; format: in vivo, Avena fatua
How it was run: as §2

ryegrass, Italian [16] = assay: Test A postemergence; format: in vivo, Lolium multiflorum
How it was run: as §2

ryegrass, Italian [17] = assay: Test A preemergence; format: in vivo, Lolium multiflorum
How it was run: as §2

corn [18] = assay: Test A preemergence; format: in vivo, Zea mays
How it was run: as §2

foxtail, giant [19] = assay: Test A postemergence; format: in vivo, Setaria faberi
How it was run: as §2

ragweed [20] = assay: Test A postemergence; format: in vivo, Ambrosia artemisiifolia
How it was run: as §2

blackgrass [21] = assay: Test A preemergence; format: in vivo, Alopecurus myosuroides
How it was run: as §2

blackgrass [22] = assay: Test A postemergence; format: in vivo, Alopecurus myosuroides
How it was run: as §2

[23] = 125 g ai/ha, visual injury after 10 days, 0 to 100 scale, 0 is no effect, 100 is complete control
[24] = 500 g ai/ha, 0 to 100 scale (0 no effect, 100 complete control), 10 days
[25] = 125 g ai/ha, postemergence, 10 days, 0 to 100 scale, 0 no effect, 100 complete control
[26] = 500 g ai/ha, postemergence, 10 days, visual injury, 0 to 100 scale (0 no effect, 100 complete control)
[27] = 125 g ai/ha, postemergence, 10 days, visual injury, 0 to 100 scale (0 no effect, 100 complete control)
[28] = 500 g ai/ha, Postemergence, 0 to 100 scale

C[C@H]1CN(C(=O)c2cccc(-n3cnc(C(C)(C)C)n3)c2)c2cccc(Cl)c2O1 [Compound 92]
80: Plant response rating, Oat, Wild (oat, wild [7]; [23]) | Kochia plant response rating (kochia [12]; [25]) | Plant response rating, Wheat (wheat [13]; [24]) | Plant response rating, Foxtail, Giant (foxtail, giant [19]; [26]) | Plant response rating, Blackgrass (blackgrass [21]; [23])
50: Plant response rating, Soybean (soybean [3]; [23]) | Plant response rating, Goosegrass (goosegrass [6]; [26]) | Plant response rating, Horseweed (horseweed; [26]) | Plant response rating, Wheat (wheat [10]; [26]) | Oat, Wild plant response rating (oat, wild [15]; [25]) | Ryegrass, Italian plant response rating (ryegrass, Italian [16]; [25])
90: Pigweed, Palmer plant response rating (pigweed, palmer [2]; [25]) | Plant response rating, Pigweed, Palmer (pigweed, palmer [2]; [26]) | Plant response rating, Soybean (soybean [3]; [24]) | Plant response rating, Oat, Wild (oat, wild [7]; [24]) | Plant response rating, Ducksalad (ducksalad) | Soybean plant response rating (soybean [9]; [25]) | Plant response rating, Kochia (kochia [12]; [26]) | Plant response rating, Blackgrass (blackgrass [21]; [24]) | Plant response rating, Blackgrass (blackgrass [22]; [26])
30: Goosegrass plant response rating (goosegrass [6]; [25]) | Corn plant response rating (corn [8]; [25]) | Plant response rating, Ragweed (ragweed [11]; [24]) | Plant response rating, Wheat (wheat [13]; [23]) | Plant response rating, Corn (corn [18]; [23]) | Plant response rating, Corn (corn [18]; [24]) | Foxtail, Giant plant response rating (foxtail, giant [19]; [25])
60: Ragweed plant response rating (ragweed [20]; [25])
0: Plant response rating, Rice (rice) | Horseweed plant response rating (horseweed; [25]) | Plant response rating, Sedge, Umbrella (sedge, umbrella) | Plant response rating, Ragweed (ragweed [11]; [23])
40: Wheat plant response rating (wheat [10]; [25])
25: Plant response rating, Barnyardgrass (barnyardgrass)
100: Plant response rating, Pigweed, Palmer (pigweed, palmer [1]; [23]) | Plant response rating, Pigweed, Palmer (pigweed, palmer [1]; [24]) | Plant response rating, Foxtail, Giant (foxtail, giant [4]; [24]) | Plant response rating, Kochia (kochia [5]; [24]) | Plant response rating, Soybean (soybean [9]; [26]) | Plant response rating, Goosegrass (goosegrass [14]; [23]) | Plant response rating, Goosegrass (goosegrass [14]; [24]) | Galium plant response rating (galium; [25]) | Plant response rating, Galium (galium; [26]) | Plant response rating, Ryegrass, Italian (ryegrass, Italian [16]; [26]) | Plant response rating, Ryegrass, Italian (ryegrass, Italian [17]; [23]) | Plant response rating, Ryegrass, Italian (ryegrass, Italian [17]; [24])
70: Plant response rating, Foxtail, Giant (foxtail, giant [4]; [23]) | Plant response rating, Kochia (kochia [5]; [23]) | Plant response rating, Corn (corn [8]; [26]) | Plant response rating, Oat, Wild (oat, wild [15]; [26]) | Plant response rating, Ragweed (ragweed [20]; [26]) | Blackgrass plant response rating (blackgrass [22]; [25])

Cc1cccc2c1O[C@@H](C)CN2C(=O)c1cccc(-n2ncnc2C(C)C)c1 [Compound 56]
0: Plant response rating, Barnyardgrass (barnyardgrass) | Plant response rating, Pigweed, Palmer (pigweed, palmer [1]; [23]) | Plant response rating, Pigweed, Palmer (pigweed, palmer [1]; [24]) | Plant response rating, Pigweed, Palmer (pigweed, palmer [2]; [27]) | Plant response rating, Pigweed, Palmer (pigweed, palmer [2]; [28]) | Plant response rating, Soybean (soybean [3]; [23]) | Plant response rating, Soybean (soybean [3]; [24]) | Plant response rating, Foxtail, Giant (foxtail, giant [4]; [23]) | Plant response rating, Foxtail, Giant (foxtail, giant [4]; [24]) | Plant response rating, Kochia (kochia [5]; [23]) | Plant response rating, Kochia (kochia [5]; [24]) | Plant response rating, Goosegrass (goosegrass [6]; [27]) | Plant response rating, Goosegrass (goosegrass [6]; [28]) | Plant response rating, Rice (rice) | Plant response rating, Horseweed (horseweed; [27]) | Plant response rating, Horseweed (horseweed; [28]) | Plant response rating, Oat, Wild (oat, wild [7]; [23]) | Plant response rating, Oat, Wild (oat, wild [7]; [24]) | Plant response rating, Corn (corn [8]; [27]) | Plant response rating, Corn (corn [8]; [28]) | Plant response rating, Ducksalad (ducksalad) | Plant response rating, Sedge, Umbrella (sedge, umbrella) | Plant response rating, Soybean (soybean [9]; [27]) | Plant response rating, Wheat (wheat [10]; [27]) | Plant response rating, Wheat (wheat [10]; [28]) | Plant response rating, Ragweed (ragweed [11]; [23]) | Plant response rating, Ragweed (ragweed [11]; [24]) | Plant response rating, Kochia (kochia [12]; [27]) | Plant response rating, Kochia (kochia [12]; [28]) | Plant response rating, Wheat (wheat [13]; [23]) | Plant response rating, Wheat (wheat [13]; [24]) | Plant response rating, Goosegrass (goosegrass [14]; [23]) | Plant response rating, Goosegrass (goosegrass [14]; [24]) | Plant response rating, Galium (galium; [27]) | Plant response rating, Galium (galium; [28]) | Plant response rating, Oat, Wild (oat, wild [15]; [27]) | Plant response rating, Oat, Wild (oat, wild [15]; [28]) | Plant response rating, Ryegrass, Italian (ryegrass, Italian [16]; [27]) | Plant response rating, Ryegrass, Italian (ryegrass, Italian [16]; [28]) | Plant response rating, Ryegrass, Italian (ryegrass, Italian [17]; [23]) | Plant response rating, Ryegrass, Italian (ryegrass, Italian [17]; [24]) | Plant response rating, Corn (corn [18]; [23]) | Plant response rating, Corn (corn [18]; [24]) | Plant response rating, Foxtail, Giant (foxtail, giant [19]; [27]) | Plant response rating, Foxtail, Giant (foxtail, giant [19]; [28]) | Plant response rating, Ragweed (ragweed [20]; [27]) | Plant response rating, Ragweed (ragweed [20]; [28]) | Plant response rating, Blackgrass (blackgrass [21]; [23]) | Plant response rating, Blackgrass (blackgrass [21]; [24]) | Plant response rating, Blackgrass (blackgrass [22]; [27]) | Plant response rating, Blackgrass (blackgrass [22]; [28])
10: Plant response rating, Soybean (soybean [9]; [28])

Source: US20260262643A1, “HERBICIDAL BENZOXAZINES” (FMC CORPORATION, priority 2022, published 2026)
